For this experiment, the target named is human FXR (NR1H4) (Homo sapiens (Human), UniProt Q96RI1). Kind of experiment: Human FXR (NR1H4) Assay (Gal4 promoter driven luciferase reporter, Indigo Bioscience kit IB00601). The experiment is classed as cell-based. As to conditions: for Efficacy (%): efficacy normalized to CDCA set as 100%; for pEC50: potency ranges. The text has this: Assays Human FXR (NR1H4) Assay
Determination of a ligand mediated Gal4 promoter driven transactivation quantify ligand binding mediated activation of FXR. FXR Reporter Assay kit purchased from Indigo Bioscience (Catalogue number: IB00601) to determine the potency and efficacy of compound developed by Enanta that can induce FXR activation. The principle application of this reporter assay system is to quantify functional activity of human FXR. The assay utilizes non-human mammalian cells, CHO (Chinese hamster ovary) cells engineered to express human NR1H4 protein (referred to as FXR). Reporter cells also incorporate the cDNA encoding beetle luciferase which catalyzes the substrates and yields photon emission. Luminescence intensity of the reaction is quantified using a plate-reading luminometer, Envision. Reporter Cells include the luciferase reporter gene functionally linked to an FXR responsive promoter. Thus, quantifying changes in luciferase expression in the treated reporter cells provides a sensitive surrogate measure of the changes in FXR activity. […] The assay is according to the manufacturer's instructions. In brief, the assay was performed in white, 96 well plates using final volume of 100 ul containing cells with different doses of compounds. Retrieve Reporter Cells from −80° C. storage. Perform a rapid thaw of the frozen cells by transferring a 10 ml volume of 37° C. cell recovery medium into the tube of frozen cells. Recap the tube of Reporter Cells and immediately place it in a 37° C. water bath for 5-10 minutes. Retrieve the tube of Reporter Cell Suspension from the water bath. Sanitize the outside surface of the tube with a 70% alcohol swab, and then transfer it into the cell culture hood. Dispense 90 μl of cell suspension into each well of the 96-well Assay Plate. Transfer the plate into 37° C. incubator, allowing the cells adherent to the bottom of the well. Dilute compounds in Dilution Plate (DP), and administrate to cells at Assay Plate (AP). DMSO content of the samples was kept at 0.2%. Cells were incubated for additional 22 hours before luciferase activities were measured. Thirty minutes before intending to quantify FXR activity, remove Detection Substrate and Detection Buffer from the refrigerator and place them in a low-light area so that they may equilibrate to room temperature. Remove the plate's lid and discard all media contents by ejecting it into an appropriate waste container. Gently tap the inverted plate onto a clean absorbent paper towel to remove residual droplets. Cells will remain tightly adhered to well bottoms. Add 100 μl of luciferase detection reagent to each well of the assay plate. Allow the assay plate to rest at room temperature for at least 5 minutes following the addition of LDR. Set the instrument (Envision) to perform a single 5 second “plate shake” prior to reading the first assay well. Read time may be 0.5 second (500 mSec) per well.
Background: Reporter assays use an easily measured gene product as a stand-in for the process of interest.

One may read the pEC50 as the negative decadic logarithm of the EC50, by convention in mol/L. A lower pEC50 goes with a high EC50.

pEC50: −log10 of the molar value.

human FXR (NR1H4), sequence (Q96RI1 whole entry, the tested form may be a part): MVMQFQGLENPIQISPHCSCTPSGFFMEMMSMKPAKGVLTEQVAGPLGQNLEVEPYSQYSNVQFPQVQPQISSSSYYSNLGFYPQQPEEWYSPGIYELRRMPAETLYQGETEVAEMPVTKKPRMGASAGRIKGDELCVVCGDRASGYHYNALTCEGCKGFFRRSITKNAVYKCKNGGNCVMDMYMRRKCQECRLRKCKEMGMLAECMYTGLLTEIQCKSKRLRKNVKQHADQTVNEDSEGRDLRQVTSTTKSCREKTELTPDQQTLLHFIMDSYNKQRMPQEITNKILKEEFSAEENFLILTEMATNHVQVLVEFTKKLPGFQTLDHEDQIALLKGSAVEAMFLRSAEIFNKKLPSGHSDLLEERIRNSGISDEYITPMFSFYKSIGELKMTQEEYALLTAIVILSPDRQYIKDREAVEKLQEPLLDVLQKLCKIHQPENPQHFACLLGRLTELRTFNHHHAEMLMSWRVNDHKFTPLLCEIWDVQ

Turning to `CC[C@H]1[C@@H](O)[C@@H]2[C@H](CC[C@]3(C)[C@@H]([C@H](C)CNC(=O)NS(=O)(=O)C4CC4)CC[C@@H]23)[C@@]2(C)CC[C@@H](O)C[C@@H]12` [Example 30], the “Efficacy (%)” value stood at 194% and the pEC50 is 5.00 to 6.00. Consider `CC[C@H]1[C@@H](O)[C@@H]2[C@H](CC[C@]3(C)[C@@H]([C@H](C)CNC(=O)NS(=O)(=O)c4ccc5c(c4)OCO5)CC[C@@H]23)[C@@]2(C)CC[C@@H](O)C[C@@H]12` [Example 117], for which the “Efficacy (%)” value was 305% and the pEC50 was more than 7.00. Consider `CC[C@H]1[C@@H](O)[C@@H]2[C@H](CC[C@]3(C)[C@@H]([C@H](C)CCNS(=O)(=O)C(C)(C)C(=O)O)CC[C@@H]23)[C@@]2(C)CC[C@@H](O)C[C@@H]12` [Example 138], for which the “Efficacy (%)” value is on record as 2% and the pEC50 was 5.00 to 6.00. Taken in the same sequence, the figures for `CC[C@H]1[C@@H](O)[C@@H]2[C@H](CC[C@]3(C)[C@@H]([C@H](C)CNC(=O)NS(=O)(=O)c4ccc(N5CCCCC5)cc4)CC[C@@H]23)[C@@]2(C)CC[C@@H](O)C[C@@H]12` [Example 118] were 267% and more than 7.00. On the same counts, the results for `CC[C@H]1[C@@H](O)[C@@H]2[C@H](CC[C@]3(C)[C@@H]([C@H](C)CCNS(=O)(=O)C(C)(C)C)CC[C@@H]23)[C@@]2(C)CC[C@@H](O)C[C@@H]12` [Example 139] are 138% and 5.00 to 6.00.

As for `CC[C@H]1[C@@H](O)[C@@H]2[C@H](CC[C@]3(C)[C@@H]([C@H](C)CCCNC(=O)NS(=O)(=O)c4ccc5ccccc5c4)CC[C@@H]23)[C@@]2(C)CC[C@@H](O)C[C@@H]12` [Example 19], the “Efficacy (%)” value was found to be 323% and the pEC50 is 6.00 to 7.00.

On to `CC[C@H]1[C@@H](O)[C@@H]2[C@H](CC[C@]3(C)[C@@H]([C@H](C)CCNC(=O)NS(=O)(=O)N4CCN(C(=O)C(C)(C)C)CC4)CC[C@@H]23)[C@@]2(C)CC[C@@H](O)C[C@@H]12` [Example 85], for which the “Efficacy (%)” value is 324% and the pEC50 was 6.00 to 7.00.

In the case of `CC[C@H]1[C@@H](O)[C@@H]2[C@H](CC[C@]3(C)[C@@H]([C@H](C)CCNC(=O)NS(=O)(=O)Cc4ccccc4)CC[C@@H]23)[C@@]2(C)CC[C@@H](O)C[C@@H]12` [Example 63], the “Efficacy (%)” value is listed as 452% and the pEC50 is 6.00 to 7.00.

As to `CC[C@H]1[C@@H](O)[C@@H]2[C@H](CC[C@]3(C)[C@@H]([C@H](C)CCNC(=O)NS(=O)(=O)c4ccc(C)c(F)c4)CC[C@@H]23)[C@@]2(C)CC[C@@H](O)C[C@@H]12` [Example 16], the “Efficacy (%)” value is 265% and the pEC50 was more than 7.00.

Regarding `CC[C@H]1[C@@H](O)[C@@H]2[C@H](CC[C@]3(C)[C@@H]([C@H](C)CCNC(=O)NS(=O)(=O)C4CCCCC4)CC[C@@H]23)[C@@]2(C)CC[C@@H](O)C[C@@H]12` [Example 22], the “Efficacy (%)” value is on record as 477% and the pEC50 is more than 7.00.

On to `CC[C@H]1[C@@H](O)[C@@H]2[C@H](CC[C@]3(C)[C@@H]([C@H](C)CCNC(=O)NS(=O)(=O)c4cccc(C)c4)CC[C@@H]23)[C@@]2(C)CC[C@@H](O)C[C@@H]12` [Example 13], for which the “Efficacy (%)” value is listed as 245% and the pEC50 is more than 7.00. With `CC[C@H]1[C@@H](O)[C@@H]2[C@H](CC[C@]3(C)[C@@H]([C@H](C)CNC(=O)NS(=O)(=O)c4cccc(N5CCCCC5)c4)CC[C@@H]23)[C@@]2(C)CC[C@@H](O)C[C@@H]12` [Example 121], the “Efficacy (%)” value was 199% and the pEC50 was 6.00 to 7.00.

Consider `CC[C@H]1[C@@H](O)[C@@H]2[C@H](CC[C@]3(C)[C@@H]([C@H](C)CCNC(=O)NS(=O)(=O)C(C)(C)C)CC[C@@H]23)[C@@]2(C)CC[C@@H](O)C[C@@H]12` [Example 28], for which the “Efficacy (%)” value amounted to 323% and the pEC50 is more than 7.00. Taken in the same sequence, the figures for `CC[C@H]1[C@@H](O)[C@@H]2[C@H](CC[C@]3(C)[C@@H]([C@H](C)CCNC(=O)NS(=O)(=O)N4CCCC4)CC[C@@H]23)[C@@]2(C)CC[C@@H](O)C[C@@H]12` [Example 48] were 420% and more than 7.00. In the case of `CC[C@H]1[C@@H](O)[C@@H]2[C@H](CC[C@]3(C)[C@@H]([C@H](C)CCCNC(=O)NS(=O)(=O)c4ccc(C(C)(C)C)cc4)CC[C@@H]23)[C@@]2(C)CC[C@@H](O)C[C@@H]12` [Example 12], the “Efficacy (%)” value is 327% and the pEC50 was more than 7.00. On the same counts, the results for `CC[C@H]1[C@@H](O)[C@@H]2[C@H](CC[C@]3(C)[C@@H]([C@H](C)CCNC(=O)NS(=O)(=O)c4cccc(F)c4)CC[C@@H]23)[C@@]2(C)CC[C@@H](O)C[C@@H]12` [Example 51] are 319% and more than 7.00. On the same counts, the results for `CC[C@H]1[C@@H](O)[C@@H]2[C@H](CC[C@]3(C)[C@@H]([C@H](C)CNC(=O)NS(=O)(=O)c4ccc(C5CCCCC5)cc4)CC[C@@H]23)[C@@]2(C)CC[C@@H](O)C[C@@H]12` [Example 113] are 366% and more than 7.00. Taken in the same sequence, the figures for `CC[C@H]1[C@@H](O)[C@@H]2[C@H](CC[C@]3(C)[C@@H]([C@H](C)CCNC(=O)NC(C)C)CC[C@@H]23)[C@@]2(C)CC[C@@H](O)C[C@@H]12` [Example 7] were 259% and 5.00 to 6.00.

Regarding `CC[C@H]1[C@@H](O)[C@@H]2[C@H](CC[C@]3(C)[C@@H]([C@H](C)CCNC(=O)NS(C)(=O)=O)CC[C@@H]23)[C@@]2(C)CC[C@@H](O)C[C@@H]12` [Example 6], the “Efficacy (%)” value turned out to be 269% and the pEC50 is 6.00 to 7.00. With `CC[C@H]1[C@@H](O)[C@@H]2[C@H](CC[C@]3(C)[C@@H]([C@H](C)CCNC(=O)NS(=O)(=O)N4C[C@H](C)C[C@H](C)C4)CC[C@@H]23)[C@@]2(C)CC[C@@H](O)C[C@@H]12` [Example 97], the “Efficacy (%)” value was determined as 308% and the pEC50 is more than 7.00. On the same counts, the results for `CC[C@H]1[C@@H](O)[C@@H]2[C@H](CC[C@]3(C)[C@@H]([C@H](C)CNC(=O)NS(=O)(=O)c4cccc(OC(F)(F)F)c4)CC[C@@H]23)[C@@]2(C)CC[C@@H](O)C[C@@H]12` [Example 116] are 322% and more than 7.00. Taken in the same sequence, the figures for `CC[C@H]1[C@@H](O)[C@@H]2[C@H](CC[C@]3(C)[C@@H]([C@H](C)CCNC(=O)NS(=O)(=O)c4cc(F)cc(OC)c4)CC[C@@H]23)[C@@]2(C)CC[C@@H](O)C[C@@H]12` [Example 103] were 328% and more than 7.00. Turning to `CC[C@H]1[C@@H](O)[C@@H]2[C@H](CC[C@]3(C)[C@@H]([C@H](C)CCNC(=O)NS(=O)(=O)c4ccc(Cl)cc4)CC[C@@H]23)[C@@]2(C)CC[C@@H](O)C[C@@H]12` [Example 25], the “Efficacy (%)” value is 357% and the pEC50 was more than 7.00. As to `CC[C@H]1[C@@H](O)[C@@H]2[C@H](CC[C@]3(C)[C@@H]([C@H](C)CNS(=O)(=O)C(C)(C)C)CC[C@@H]23)[C@@]2(C)CC[C@@H](O)C[C@@H]12` [Example 143], the “Efficacy (%)” value is 6%. `CCCCS(=O)(=O)NC(=O)NCC[C@@H](C)[C@H]1CC[C@H]2[C@@H]3[C@H](O)[C@H](CC)[C@@H]4C[C@H](O)CC[C@]4(C)[C@H]3CC[C@]12C` [Example 90]: the “Efficacy (%)” value is 407% and the pEC50 was more than 7.00. `CC[C@H]1[C@@H](O)[C@@H]2[C@H](CC[C@]3(C)[C@@H]([C@H](C)CCNC(=O)NS(=O)(=O)C4(C)CC4)CC[C@@H]23)[C@@]2(C)CC[C@@H](O)C[C@@H]12` [Example 46]: the “Efficacy (%)” value is reported as 315% and the pEC50 was more than 7.00. Taken in the same sequence, the figures for `CC[C@H]1[C@@H](O)[C@@H]2[C@H](CC[C@]3(C)[C@@H]([C@H](C)CCNC(=O)NS(=O)(=O)c4cccc(-c5nc(C)cs5)c4)CC[C@@H]23)[C@@]2(C)CC[C@@H](O)C[C@@H]12` [Example 80] were 295% and 6.00 to 7.00.
